In patent publication US9453008B2, “Antithrombotic and antiatherosclerotic agent and method for producing same (variants)” (PROTON OOO, priority 2011, dated 2016):
“Also recorded” adds a separate entry of the source. Marks after values point to notes of the source that are not given here.

Tests used:
Acute toxicity (LD50) = assay type: in vivo; conditions: mouse, in vivo, other: internal administration
From the text: (§1) Acute toxicity of the compound in mice in internal administration is 8.9±0.75 g/kg, cumulation after 28 days administration is weak (lethality less than 50%).

mice = test: Acute toxicity (LD50); assay type: in vivo; conditions: mice, internal administration
From the text: as §1

[1] = system: platelet aggregation induced by arachidonic acid; test: Platelet aggregation induced by arachidonic acid following peroral administration in rabbits; assay type: in vivo, rabbit
Experimental: FIG. 3 is a graph showing the changes in platelet aggregation, induced by arachidonic acid, following peroral administration of the compound I in rabbits (% compared to control).
(§2) Antiplatelet activity was assessed by the effect of the compound on platelet aggregation of rabbit blood plasma, induced by ADP (adenosine diphosphate) and arachidonic acid. Platelet aggregation was assessed by the change of optical density of plasma. Studies were performed using both intravenous administration, in comparison with sodium nitroprusside, and oral administration, in comparison with acetylsalicylic acid. Compound I was used in concentrations of 10^−3-10^−7 M (parenteral administration) and in 4-8 and 12 mg/kg doses (oral administration).
Using arachidonic acid (AA) as an aggregation inductor, the experiments were performed in conditions of oral administration. We consider such experimentation justified by the possibility of different routes of administration for the tested compound, not only intravenous one (unlike sodium nitroprusside).

[2] = system: ADP-induced platelet aggregation; test: ADP-induced platelet aggregation following intravenous administration in rabbits; assay type: in vivo, rabbit
Experimental: FIG. 1 is a graph showing the effect of the compound I and sodium nitroprusside on ADP-induced platelet aggregation following intravenous administration in rabbits (% compared to control).
as §2
In order to make a final conclusion on the ability of the studied compound to inhibit platelet aggregation experiments were performed in conditions of living organism using intravenous and oral administration.
Compound I and sodium nitroprusside (a reference drug) have both inhibited the process of platelet aggregation. However, there were considerable quantitative and temporal differences in their effects. […] This was the only time point where we managed to observe its activity. After 1 hour the effect disappeared.

[3] = General toxicity and tolerability on animals; assay type: in vivo
Experimental: Research of antiplatelet properties of the compound I, its effect on the activity of soluble guanylate cyclase and NO generation was performed by experimentation in vitro, its ability to exert hypotensive and antihypertensive action was studied on animals. General toxicity and tolerability of the compound of formula I were studied on animals.

[4] = system: spontaneously hypertensive (SHT) rats; test: Blood pressure in narcotized SHT rats, intravenous administration; assay type: in vivo, rat
Experimental: (§3) The experiments were performed on spontaneously hypertensive (SHT) and normotensive (NT) narcotized male rats using intravenous administration of the tested compounds. The ability of the compound to reduce arterial blood pressure (BP) in SHT rats and prevent spasmogenic reactions to noradrenalin (NA) and angiotensin I (AI).
The compound of formula I was used as a solution in 3% aqueous DMSO. Sodium nitroprusside and nitroglycerin were used as reference drugs.
The administration of the compound of formula I in dose range 0.01-0.1-0.5 and 1.0 mg/kg has exerted dose-dependent antihypertensive effect ranging in time from 30-40 s to 60 min and more.

non-narcotized SHT rats = test: Blood pressure in non-narcotized SHT rats, intragastric administration (non-invasive BP measurement); assay type: in vivo, rat
Experimental: In experiments on non-narcotized SHT rats intragastric administration of the compound of formula I has caused dose-dependent reduction of BP, the duration of which was increased correspondingly with dose increase (maximal duration of effect 5 hours after single administration of 50 mg/kg dose, Table 3).

[5] = system: ADP-induced platelet aggregation; test: ADP-induced platelet aggregation of rabbit blood plasma, in vitro; assay type: cell-based; conditions: concentrations of 10^−3-10^−7 M; listed as compound of formula I
Experimental: as §2

[6] = system: ADP-induced platelet aggregation; test: ADP-induced platelet aggregation following peroral administration in rabbits; assay type: in vivo, rabbit
Experimental: FIG. 2 is a graph showing the changes in platelet functional activity following peroral administration of the compound I in a model of ADP-induced aggregation in rabbits (% compared to control).
as §2

[7] = system: pressor effect of angiotensin I; test: Pressor effect of angiotensin I after intravenous administration in normotensive narcotized rats; assay type: in vivo, rat
Experimental: as §3
The effects of the compound of formula I on the pressor effects of noradrenaline (NA, 10-15 μg/kg), mesatonum (M, 5 μg/kg) and angiotensin (AI, 5 μg/kg) were studied on normotensive narcotized […]. Antihypertensive action of the compound of formula I was assessed relative to the pressor effects of the control administration of the aforementioned compounds.

[8] = Cumulation after 28 days administration; assay type: in vivo
From the text: as §1

## CN1CC(CO)O/C1=C(C#N)/C=C1/Nc2ccccc2C1=O (stereo not shown) [Compound I, 2-[2-Cyano-2-[5-(hydroxymethyl)-3-methyl-1,3-oxazolidin-2-ylidene]ethylidene]indolin-3-one]
Acute toxicity (LD50)
  LD50: 8900 mg/kg
mice
  Acute toxicity: 8.9 ± 0.75 g/kg
[1]; after 2 hours (inductor not restated)
  Effect on platelet aggregation (statistically significant): 32%
[1]; at 4 hour (inductor not restated)
  Effect on platelet aggregation: 38%
[1]; end of the first hour (inductor not restated)
  Effect on platelet aggregation (as a tendency): up to 10%
[1]; oral, rabbits, 1 hour after the administration
  Reduction of platelet aggregation induced by arachidonic acid: reduced by a third
[1]; oral, rabbits, 4 hours
  Action of AA at the end of the observation period: comparable to the control
[1]; oral, rabbits, after 2 hour
  Inhibition of the action of the inductor (AA): by over two times
[1]; per os
  Duration of effect on AA-induced aggregation: 2 to 4 h
[2]; intravenous administration to rabbits
  Inhibition of induced functional activity of platelets compared with sodium nitroprusside: as potent as that of sodium nitroprusside, but persists for a longer time
[2]; intravenous, rabbits
  Time at which inhibition of platelet aggregation stopped/disappeared: 3 h
  Time of maximal potency of inhibition of platelet aggregation: 60 min
[3]
  General toxicity and tolerability: non-toxic, well tolerated
[3]; relatively high doses
  Neurotoxicity: does not exhibit neurotoxicity
[4]; 0.01 mg/kg dose intravenous
  Duration of BP reduction: 30 s
  Reduction of BP: 10-12 mmHg
[4]; 0.01 mg/kg intravenously, 10-20 s
  Reduction of BP, mmHg (Δ): −12 ± 5 mmHg
[4]; 0.1 mg/kg intravenously, 10-20 s
  Reduction of BP, mmHg (Δ): −15 ± 5 mmHg
[4]; 0.1 mg/kg intravenously, 5 min
  Reduction of BP, mmHg (Δ): −20 ± 7 mmHg
[4]; 0.5 mg/kg intravenously, 10-20 s
  Reduction of BP, mmHg (Δ): −10 ± 3 mmHg
[4]; 0.5 mg/kg intravenously, 5 min
  Reduction of BP, mmHg (Δ): −20 ± 8 mmHg
[4]; 0.5 mg/kg intravenously, 30 min
  Reduction of BP, mmHg (Δ): −25 ± 8 mmHg
[4]; 0.5 mg/kg intravenously, 60 min
  Reduction of BP, mmHg (Δ): −30 ± 7 mmHg
[4]; 1.0 mg/kg dose intravenous
  Duration of BP reduction: 3600 s
  Reduction of BP (maximal effect): 25-30 mmHg
[4]; 1.0 mg/kg intravenously, 10-20 s
  Reduction of BP, mmHg (Δ): −12 ± 3 mmHg
[4]; 1.0 mg/kg intravenously, 5 min
  Reduction of BP, mmHg (Δ): −25 ± 7 mmHg
[4]; 1.0 mg/kg intravenously, 30 min
  Reduction of BP, mmHg (Δ): −30 ± 7 mmHg
[4]; 1.0 mg/kg intravenously, 60 min
  Reduction of BP, mmHg (Δ): −30 ± 8 mmHg
[4]; 1.0 mg/kg intravenously, 120 min
  Reduction of BP, mmHg (Δ): −30 ± 8 mmHg
non-narcotized SHT rats; 1 mg/kg orally, time column 1 (hours), 1 h after dosing
  Reduction of BP, mmHg: 20* mmHg
non-narcotized SHT rats; 1 mg/kg orally, time column 2, 2 h after dosing
  Reduction of BP, mmHg: 10 mmHg
non-narcotized SHT rats; 1 mg/kg orally, time column 3, 0 - absence of effect, 3 h after dosing
  Reduction of BP, mmHg: 0 mmHg
non-narcotized SHT rats; 1 mg/kg orally, time column 4, 0 - absence of effect, 4 h after dosing
  Reduction of BP, mmHg: 0 mmHg
non-narcotized SHT rats; 1 mg/kg orally, time column 5, 0 - absence of effect, 5 h after dosing
  Reduction of BP, mmHg: 0 mmHg
non-narcotized SHT rats; 1 mg/kg orally, time column 6, 0 - absence of effect, 6 h after dosing
  Reduction of BP, mmHg: 0 mmHg
non-narcotized SHT rats; 5 mg/kg orally, time column 1, 1 h after dosing
  Reduction of BP, mmHg: 17* mmHg
non-narcotized SHT rats; 5 mg/kg orally, time column 2, 2 h after dosing
  Reduction of BP, mmHg: 20* mmHg
non-narcotized SHT rats; 5 mg/kg orally, time column 3, 3 h after dosing
  Reduction of BP, mmHg: 32* mmHg
non-narcotized SHT rats; 5 mg/kg orally, time column 4, 4 h after dosing
  Reduction of BP, mmHg: 30* mmHg
non-narcotized SHT rats; 5 mg/kg orally, time column 5, 5 h after dosing
  Reduction of BP, mmHg: 15 mmHg
non-narcotized SHT rats; 5 mg/kg orally, time column 6, 0 - absence of effect, 6 h after dosing
  Reduction of BP, mmHg: 0 mmHg
non-narcotized SHT rats; 10 mg/kg orally, time column 1, 0 - absence of effect, 1 h after dosing
  Reduction of BP, mmHg: 23* mmHg
non-narcotized SHT rats; 10 mg/kg orally, time column 2, 0 - absence of effect, 2 h after dosing
  Reduction of BP, mmHg: 30* mmHg
non-narcotized SHT rats; 10 mg/kg orally, time column 3, 0 - absence of effect, 3 h after dosing
  Reduction of BP, mmHg: 37 mmHg
non-narcotized SHT rats; 10 mg/kg orally, time column 4, 0 - absence of effect, 4 h after dosing
  Reduction of BP, mmHg: 35 mmHg
non-narcotized SHT rats; 10 mg/kg orally, time column 5, 0 - absence of effect, 5 h after dosing
  Reduction of BP, mmHg: 17* mmHg
non-narcotized SHT rats; 10 mg/kg orally, time column 6, 0 - absence of effect, 6 h after dosing
  Reduction of BP, mmHg: 0 mmHg
non-narcotized SHT rats; 25 mg/kg orally, time column 1, 1 h after dosing
  Reduction of BP, mmHg: 26* mmHg
non-narcotized SHT rats; 25 mg/kg orally, time column 2, 2 h after dosing
  Reduction of BP, mmHg: 32* mmHg
non-narcotized SHT rats; 25 mg/kg orally, time column 3, 3 h after dosing
  Reduction of BP, mmHg: 45* mmHg
non-narcotized SHT rats; 25 mg/kg orally, time column 4, 4 h after dosing
  Reduction of BP, mmHg: 45* mmHg
non-narcotized SHT rats; 25 mg/kg orally, time column 5, 5 h after dosing
  Reduction of BP, mmHg: 25* mmHg
non-narcotized SHT rats; 25 mg/kg orally, time column 6, 0 - absence of effect, 6 h after dosing
  Reduction of BP, mmHg: 0 mmHg
non-narcotized SHT rats; 50 mg/kg orally, time column 1, 1 h after dosing
  Reduction of BP, mmHg: 25* mmHg
non-narcotized SHT rats; 50 mg/kg orally, time column 2, 2 h after dosing
  Reduction of BP, mmHg: 42* mmHg
non-narcotized SHT rats; 50 mg/kg orally, time column 3, 3 h after dosing
  Reduction of BP, mmHg: 50* mmHg
non-narcotized SHT rats; 50 mg/kg orally, time column 4, 4 h after dosing
  Reduction of BP, mmHg: 50* mmHg
non-narcotized SHT rats; 50 mg/kg orally, time column 5, 5 h after dosing
  Reduction of BP, mmHg: 25* mmHg
non-narcotized SHT rats; 50 mg/kg orally, time column 6, 0 - absence of effect, 6 h after dosing
  Reduction of BP, mmHg: 0 mmHg
non-narcotized SHT rats; single intragastric administration of 50 mg/kg dose
  Maximal duration of BP-reducing effect: 5 h
[5]
  In vitro antiplatelet activity (inhibition of ADP-induced platelet aggregation): significantly inhibits; also recorded: as good as that of acetylsalicylic acid
[6]; enteral administration
  Duration of effect on ADP-induced aggregation: about 3 hours
[6]; peroral, rabbits, after 2 hours
  Inhibition of ADP-induced aggregation (maximal potency): 40%
[6]; peroral, rabbits, after the first hour
  Inhibition of ADP-induced aggregation: 30%
[6]; peroral, rabbits, persisting for all 4 hours of observation
  Inhibition of ADP-induced aggregation (as a tendency): 15-25%
[7]; 0.01 mg/kg intravenous, 0 - absence of effect
  Inhibition of pressor reaction (%) induced by Angiotensin I: 0%
[7]; 0.05 mg/kg intravenous
  Inhibition of pressor reaction (%) induced by Angiotensin I: 10%
[7]; 0.1 mg/kg intravenous, listed as Compound of formula I
  Inhibition of pressor reaction (%) induced by Angiotensin I: 25-30%
[7]; 0.1 mg/kg intravenous, listed as compound of formula I
  Inhibition of pressor reaction (%) induced by Angiotensin I: 25%
[7]; 0.5 mg/kg intravenous, 0 - absence of effect
  Inhibition of pressor reaction (%) induced by Angiotensin I: 30%
[7]; 1.0 mg/kg intravenous
  Inhibition of pressor reaction (%) induced by Angiotensin I: 30-40%
[8]
  Lethality: less than 50%
